Our source for the IC50 values is ChEMBL document CHEMBL1201862, “PubChem BioAssay data set” (2004).

Activity calls are given as the source filed them. Cut-off read from the data, not from the text of the source: actives have a measured IC50 and inactives only a lower limit.

For the assay, the target named is Envelope glycoprotein gp160 (Human immunodeficiency virus 1, UniProt Q6QLK5). The experiment in a line: cell-free HIV fusion peptide-binding blockers – biochemical, uHTS, fluorescence dequenching, […] (AID 1986).
Envelope glycoprotein gp160, sequence (Q6QLK5 whole entry, the tested form may be a part): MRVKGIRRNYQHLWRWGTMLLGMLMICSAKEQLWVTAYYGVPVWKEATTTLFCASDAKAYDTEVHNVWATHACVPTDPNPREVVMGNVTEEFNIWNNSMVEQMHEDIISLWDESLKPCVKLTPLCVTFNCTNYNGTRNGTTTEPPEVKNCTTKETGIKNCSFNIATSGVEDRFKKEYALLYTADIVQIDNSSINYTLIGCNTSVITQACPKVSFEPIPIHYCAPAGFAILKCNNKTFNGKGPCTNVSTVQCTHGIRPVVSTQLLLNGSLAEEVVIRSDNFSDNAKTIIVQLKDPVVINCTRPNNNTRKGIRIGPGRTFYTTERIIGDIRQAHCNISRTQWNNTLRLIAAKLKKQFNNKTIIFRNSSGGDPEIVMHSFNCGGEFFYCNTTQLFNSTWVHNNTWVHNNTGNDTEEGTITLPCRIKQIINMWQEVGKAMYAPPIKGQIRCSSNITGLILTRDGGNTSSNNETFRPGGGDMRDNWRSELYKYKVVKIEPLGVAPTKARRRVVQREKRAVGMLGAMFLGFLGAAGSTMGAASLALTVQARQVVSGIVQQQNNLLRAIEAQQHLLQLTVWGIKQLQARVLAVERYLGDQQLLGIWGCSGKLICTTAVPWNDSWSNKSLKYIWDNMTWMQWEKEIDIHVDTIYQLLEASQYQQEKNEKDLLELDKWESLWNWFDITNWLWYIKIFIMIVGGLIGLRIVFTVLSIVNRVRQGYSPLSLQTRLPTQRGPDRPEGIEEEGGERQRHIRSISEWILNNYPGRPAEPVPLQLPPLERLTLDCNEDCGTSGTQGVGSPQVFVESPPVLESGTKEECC
Regarding `O=C(O)CN1C(=O)/C(=C\c2cccc(OCc3ccc(Cl)cc3)c2)SC1=S`, the 50% inhibitory concentration (IC50) (in general, the point on the concentration scale where inhibition reaches its midpoint) is 13.6 µM (active). The result for `O=C1NC(=S)N(c2ccc(F)cc2)C(=O)/C1=C/c1ccco1` reads 15.6 µM (active). The result for `Cc1ccc(C)c(S(=O)(=O)/N=C2\C=C(NS(=O)(=O)c3ccccc3)C(=O)c3ccccc32)c1` reads 12.9 µM (active); that for `O=[N+]([O-])c1cccc(S(=O)(=O)Nc2nc3ccccc3nc2Nc2cccc(S(=O)(=O)N3CCCCC3)c2)c1`, 14.5 µM (active).

For `Cc1cc(C)cc(-n2cccc2/C=C2/C(=N)N3C(=NC2=O)SN=C3S(C)(=O)=O)c1`, the IC50 was 11.6 µM (active).

As to `CCCCCCc1c(C)c2ccc(OCC(=O)N[C@@H](Cc3ccccc3)C(=O)O)cc2oc1=O`, the concentration for half-maximal inhibition (IC50) was 22.8 µM (active).
